According to article PMC11530130, “Peripherally restricted PICK1 inhibitor mPD5 ameliorates pain behaviors in murine inflammatory and neuropathic pain models” (JCI Insight, 2024):
Where “and” joins values, the source holds several entries; their conditions need not be identical. Equal values may be shown once.

How the values were obtained:
Type in all cases: in vivo, mouse
[1] = test system: mice, CFA model of inflammatory pain; test: CFA model, elevated plus maze
[2] = test system: PICK1-WT and PICK1-KO mice, SNI model; test: SNI model, von Frey, PICK1-WT and PICK1-KO mice; details: for effect on mechanical hypersensitivity (PWT): s.c.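 As to von Frey paw withdrawal threshold, individual animals (Fig 5F): time points given in hours with 0 hours as the comparison point.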
Description: solution (0.05 mg/kg) injected s.c. 30 min before surgery (10 μL/g). For surgery, mice were anaesthetised with ketamine (100 mg/kg, i.p.) and xylazine (10 mg/kg, i.p.) (volume 10 µL/g) with 100 μL of 1% xylocaine solution infiltrated at the site of the incision. The distal trifurcation of the sciatic nerve was identified, and the tibial and common peroneal branches were ligated with polypropylene nonabsorbable 6-0 sutures (Ethicon) and 1 mm was cut out, leaving the sural branch intact. The wound was closed with sutures, and the animals were allowed to recover and returned to their cages. Two subcutaneous injections of buprenorphine (0.05 mg/kg) were performed with an 8 to 12 hours delay decreasing pain due to the surgery […]
The remaining SNI pain experiments were performed in-house using the following procedure.
SNI surgery was performed on the left hindleg of C57BL/6J male and female mice (Janvier, France) under 2% isoflurane anaesthesia. Skin on the lateral surface was incised between hip and knee followed by lengthwise division of the biceps femoris muscle leading to exposure of the three branches of the sciatic nerve. Sural branch was left intact, while the peroneal and tibial branches were ligated with a single surgical knot and axotomized distally of the ligation.
Wounds were closed with surgical glue or medical clips and animals were monitored daily for signs of stress or discomfort, but in all cases recovered uneventfully. […]
The skin wound was closed with two medical clips (Michel Suture Clips, 7.5x1.75 mm, Angthos, 12040-01). Post-surgical analgesia included s.c. injection of 5 mg/kg carprofen (Carprosan vet, 50 mg/mL mixed 1:25 in sterile ddH2O, Dechra, Le Vet Beheer B.V., Netherlands, Batch: 050520) right after surgery and the […]
following day. […]
The test battery of the CIBP model was carried out 45 or 90 min after morphine and mPD5 administration respectively to accommodate the peak efficacy […]
Mechanically evoked pain (von Frey test).
Unless otherwise specified, von Frey occurred as described in the following. Animals were habituated to the experimental room for a minimum of 60 min before initiation of the experiment. Mechanical paw withdrawal threshold (PWT) was determined by von Frey measurements of both hind paws. Von Frey filaments ranging from 0.04 to 2 g (g = gram- […]
Filaments in ascending order were applied to the frontocentral plantar surface of the hind paws.
Mice were placed in PVC plastic boxes (11.5 cm x 14 cm) on a wire mesh and allowed minimum 20 min habituation prior of experiment initiation. Each von Frey hair was applied five times with adequate resting periods between each application and number of withdrawals recorded. The withdrawal threshold was determined as the von Frey filament eliciting at least three positive trials out of the five applications in two consecutive filaments. A positive trial was defined as sudden paw withdrawal, flinching and/or paw licking induced by the filament.
For the CIBP model, two habituation sessions were performed on separated days with mice placed in the von Frey equipment for 1-1.5 hours in the presence of the experimenter on day one and random von Frey pocking with the 0.6 g filament on day two. Von Frey monofilaments (North Coast Touch Test, North Coast Medical, Inc.) with target forces of 0.04g, 0.07g, 0.16g, […]
down method” (PWT=10Xf+kδ) starting with the 0.6 g filament. Positive response was defined as; withdrawal, shaking or grooming of paw following a 2-3 second stimulation. In case, of unclear response, stimulus was repeated after 10-15 seconds.
For the STZ model, the mechanical threshold response of the injected mice was measured with […]
injection of test compounds on day 14, mechanical threshold was measured at 1 hour, 2 hours, 4 hours and 6 hours and again on day 15. […]
Thermally evoked pain (Hargreaves test).
A baseline Hargreaves test was performed on day 0 before inflammatory pain was induced as described in section 2.13. In the Hargreaves test, the mouse was placed in a container on a glass […]

naive mice = test: Barnes maze (spatial learning and memory, reversal learning); details: for Barnes maze, count per hole (Fig S8D) / Barnes maze, count per hole (Fig S8E): individual animals;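 as to Barnes maze, count per hole (Fig S8D): Nose pokes per hole during a probe trial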;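 as to Barnes maze, count per hole (Fig S8E): Nose pokes per hole during a probe trial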
Description: Spatial learning and memory.
On each day, animals were moved from the housing facility to the experimental room and allowed to acclimatize for at least 60 min before initiation of the experiment. All drugs used (PBS or 10 μmol/kg mPD5) were injected s.c. in a 10 μl/g body weight volume 60 min before first placement on the Barnes’ maze on day 1-9 of the experiment. The experiment was divided into Barnes maze habituation, spatial acquisition (training) and probe trials. During habituation to the Barnes maze itself, animals were placed under a cylinder in the middle of the Barnes maze for 10 seconds and then gently guided to the escape box and left there for two min. During spatial acquisition (training), each mouse was placed under a cylinder in the middle of the Barnes maze for 10 sec followed by up to three min of free exploration of the Barnes maze.
Once the animal entered the escape cage, it was left there for one min before being transferred back to its home cage for 15-20 min. This training was performed four times per day per mouse.
During probe trials the reference memory of the animal was tested by placing each mouse under a cylinder in the middle of the Barnes maze for 10 sec followed by 90 sec of free exploration of the Barnes maze with no escape cage. On days 6-8, the escape hole was moved 90 degrees, and all mice went through the second bout of training. On day nine, a second probe trial was performed testing the reversal learning of the mice. […]
Single exposure place preference. […]

## CCCCCCCCCCCCCC(=O)N(CCOCCOCCC(=O)N[C@@H](Cc1c[nH]cn1)C(=O)N[C@@H](Cc1c[nH]c2ccccc12)C(=O)N[C@@H](CC(C)C)C(=O)N[C@@H](CCCCN)C(=O)N[C@H](C(=O)O)C(C)C)CCOCCOCCC(=O)N[C@@H](Cc1c[nH]cn1)C(=O)N[C@@H](Cc1c[nH]c2ccccc12)C(=O)N[C@@H](CC(C)C)C(=O)N[C@@H](CCCCN)C(=O)N[C@H](C(=O)O)C(C)C [mPD5, myristoyl-NPEG4-(HWLKV)2]
[1]; 1 hour after s.c. 10 μmol/kg
  time spent in open arms relative to sham, individual mice: 105.738 and 52.6613 and 140.768 and 68.9703 and 55.3027 and 160.227 and 143.859 and 0 and 156.14 and 28.0701 and 63.1578
[1]; s.c. 10 μmol/kg
  time spent in the open arms of the elevated plus maze: no longer significantly different from the naive mice
[2]; PICK1-KO mice following SNI surgery
  effect on mechanical hypersensitivity (PWT): no effect on mechanical hypersensitivity
[2]; PICK1-KO, CONTRA, BL
  von Frey paw withdrawal threshold, individual animals (Fig 5F): 1.4 (4×) and 2 (2×)
[2]; PICK1-KO, CONTRA, time 0
  von Frey paw withdrawal threshold, individual animals (Fig 5F): 1 (3×) and 1.4 (3×)
[2]; PICK1-KO, CONTRA, time 1
  von Frey paw withdrawal threshold, individual animals (Fig 5F): 1.4 (3×) and 0.6 and 2 and 1
[2]; PICK1-KO, CONTRA, time 5
  von Frey paw withdrawal threshold, individual animals (Fig 5F): 1 and 1.4 (3×) and 2 (2×)
[2]; PICK1-KO, injured side, BL
  von Frey paw withdrawal threshold, individual animals (Fig 5F): 1.4 (4×) and 2 and 1
[2]; PICK1-KO, injured side, time 0
  von Frey paw withdrawal threshold, individual animals (Fig 5F): 0.6 and 0.07 and 0.4 (2×) and 0.16 (2×)
[2]; PICK1-KO, injured side, time 1
  von Frey paw withdrawal threshold, individual animals (Fig 5F): 0.4 (2×) and 0.16 (3×) and 0.07
[2]; PICK1-KO, injured side, time 5
  von Frey paw withdrawal threshold, individual animals (Fig 5F): 0.16 (2×) and 0.07 (3×) and 0.4
[2]; PICK1-WT, CONTRA, BL
  von Frey paw withdrawal threshold, individual animals (Fig 5F): 1 (2×) and 1.4 (4×)
[2]; PICK1-WT, CONTRA, time 0
  von Frey paw withdrawal threshold, individual animals (Fig 5F): 1.4 (4×) and 1 and 2
[2]; PICK1-WT, CONTRA, time 1
  von Frey paw withdrawal threshold, individual animals (Fig 5F): 1.4 (3×) and 1 (2×) and 2
[2]; PICK1-WT, CONTRA, time 5
  von Frey paw withdrawal threshold, individual animals (Fig 5F): 1.4
[2]; PICK1-WT, injured side, BL
  von Frey paw withdrawal threshold, individual animals (Fig 5F): 1 (2×) and 1.4 (3×) and 2
[2]; PICK1-WT, injured side, time 0
  von Frey paw withdrawal threshold, individual animals (Fig 5F): 0.07 (2×) and 0.16 (3×) and 0.4
[2]; PICK1-WT, injured side, time 1
  von Frey paw withdrawal threshold, individual animals (Fig 5F): 1.4 (4×) and 1 (2×)
[2]; PICK1-WT, injured side, time 5
  von Frey paw withdrawal threshold, individual animals (Fig 5F): 0.6 (2×) and 0.4 (3×) and 1
[2]; WT littermates following SNI surgery
  effect on mechanical hypersensitivity (PWT): significantly reduced
Naive mice; hole position 1
  Barnes maze, count per hole (Fig S8D): 2 (3×) and 1 (2×) and 0 (2×) and 3 (2×)
  Barnes maze, count per hole (Fig S8E): 3 (6×) and 1 (2×) and 2
Naive mice; hole position 2
  Barnes maze, count per hole (Fig S8D): 0 (5×) and 1 (3×) and 2
  Barnes maze, count per hole (Fig S8E): 0 (6×) and 1 (3×)
Naive mice; hole position 3
  Barnes maze, count per hole (Fig S8D): 1 (4×) and 2 (3×) and 0 (2×)
  Barnes maze, count per hole (Fig S8E): 1 (7×) and 0 and 2
Naive mice; hole position 4
  Barnes maze, count per hole (Fig S8D): 0 (4×) and 2 (2×) and 1 (3×)
  Barnes maze, count per hole (Fig S8E): 1 (6×) and 2 (2×) and 0
Naive mice; hole position -1
  Barnes maze, count per hole (Fig S8D): 2 (3×) and 3 and 1 (2×) and 6 and 0 and 4
  Barnes maze, count per hole (Fig S8E): 3 (4×) and 0 (2×) and 1 and 2 and 4
Naive mice; hole position -2
  Barnes maze, count per hole (Fig S8D): 0 (8×) and 1
  Barnes maze, count per hole (Fig S8E): 0 (4×) and 1 (4×) and 2
Naive mice; hole position -3
  Barnes maze, count per hole (Fig S8D): 0 (6×) and 1 (2×) and 2
  Barnes maze, count per hole (Fig S8E): 1 (5×) and 0 (2×) and 2 (2×)
Naive mice; hole position -4
  Barnes maze, count per hole (Fig S8D): 0 (6×) and 2 (2×) and 1
  Barnes maze, count per hole (Fig S8E): 1 (6×) and 0 (2×) and 2
Naive mice; hole position -5
  Barnes maze, count per hole (Fig S8D): 0 (6×) and 2 (2×) and 1
  Barnes maze, count per hole (Fig S8E): 1 (4×) and 0 (2×) and 2 (2×) and 3
Naive mice; hole position -6
  Barnes maze, count per hole (Fig S8D): 0 (6×) and 3 and 1 (2×)
  Barnes maze, count per hole (Fig S8E): 1 (3×) and 0 (2×) and 2 (3×) and 3
Naive mice; hole position -7
  Barnes maze, count per hole (Fig S8D): 0
  Barnes maze, count per hole (Fig S8E): 0
Naive mice; hole position Goal
  Barnes maze, count per hole (Fig S8D): 2 (2×) and 3 (2×) and 6 (2×) and 1 (2×) and 4
  Barnes maze, count per hole (Fig S8E): 4 (3×) and 3 (3×) and 2 (2×) and 1
Naive mice; s.c. 10 μmol/kg 60 minutes before placement, after 4 days of training
  latency to reach target and total distance moved, probe test day 5: no difference
Naive mice; s.c. 10 μmol/kg 60 minutes before placement, probe test day 9
  latency to reach the target and total distance moved following reversal learning: no difference was observed
Naive mice; s.c. 10 μmol/kg, both probe tests
  distribution of nose pokes between the holes: did not differ between groups
